Results: patent US20260015350A1, “AZAQUINAZOLINE PAN-KRAS INHIBITORS” (Mirati Therapeutics, Inc., priority 2022, published 2026)

Experiments:
KRas^G12R = molecular target: T1, KRas^G12R (Homo sapiens, UniProt P01116, G12R); assay: KRas binding assay (TR-FRET tracer displacement), KRas G12R
T1 construct: Biotinylated KRas (corresponding to amino acids 1-169, produced at Accelegan Inc.); biotin (biotinylated); purchased Accelegan Inc

KRas^G12V = molecular target: T2, KRas^G12V (Homo sapiens, UniProt P01116, G12V); assay: KRas binding assay (TR-FRET tracer displacement), KRas G12V
T2 construct: Biotinylated KRas (corresponding to amino acids 1-169, produced at Accelegan Inc.); biotin (biotinylated); purchased Accelegan Inc
T2 sequence (P01116 1-169 isoform P01116-2 G12V): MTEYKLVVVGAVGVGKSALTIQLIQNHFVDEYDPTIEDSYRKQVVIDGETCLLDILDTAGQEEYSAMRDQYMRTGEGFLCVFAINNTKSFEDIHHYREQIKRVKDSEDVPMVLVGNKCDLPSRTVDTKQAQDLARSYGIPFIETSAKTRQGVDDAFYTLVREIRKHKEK

KRas^G12D = molecular target: T3, KRas^G12D (Homo sapiens, UniProt P01116, G12D); assay: KRas binding assay (TR-FRET tracer displacement), KRas G12D
T3 construct: Biotinylated KRas (corresponding to amino acids 1-169, produced at Accelegan Inc.); biotin (biotinylated); purchased Accelegan Inc
T3 sequence (P01116 1-169 isoform P01116-2 G12D): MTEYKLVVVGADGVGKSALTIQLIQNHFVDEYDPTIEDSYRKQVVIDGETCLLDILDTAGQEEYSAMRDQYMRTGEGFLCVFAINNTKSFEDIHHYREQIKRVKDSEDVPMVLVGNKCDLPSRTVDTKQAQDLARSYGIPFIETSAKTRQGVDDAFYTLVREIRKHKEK

[1] = test system: KRas-mediated phosphorylation of ERK in AsPC-1 cells; assay: Inhibition of KRas-mediated phosphorylation of ERK (Cisbio HTRF pERK), AsPC-1 cells; type: cell-based; conditions: HTRF pERK
Protocol: (§1) Inhibition of KRas Phosphorylation of ERK (HTRF) by Exemplary Compounds of Formula (I) Cisbio HTRF Advanced PERK Assay Catalog #64[…] […] Add 10 mL of media to stop trypsinizing. Pipette the cells into a conical bottom 50 mL centrifuge tube and centrifuge 5 min×1000 rpm. […] Re-suspend the cell pellet in media, take a cell count, and then adjust the cell density using fresh media. […] Seed 6,000 cells into cell culture plate with 50 μL media. […] Use Tecan to complete the compound addition. Compounds start from 10 uM top, 3-fold dilution, and 10 doses. The final DMSO concentration is 0.8%. Dispensed 0.2 uM Trametinib as Min control. […] Incubate cell plate for 3 hrs in the incubator. […] Dilute 1 volume of 4× lysis buffer with 3 volumes of deionized water. […] Keep lysis buffer on the ice. […] At the end of the compound treatment, flick-off the media. […] Add 35 μL of lysis buffer per well using a Multidrop Combi. Then place on a plate agitator shaking at 300 rpm at 4° C. for 40 mins. […] Make up the HTRF antibody buffer. For each assay plate, mix 50 μL of d2-conjugate antibody with 950 μL of detection buffer. Similarly, mix 50 μL of Cryptate antibody with 950 μL of detection buffer. Then mix the two diluted antibodies together. […] Dispense 3.4 μL the antibody buffer to wells of an empty assay plate. Seal the plate and centrifuge plate 30 sec×1000 rpm. […] At the end of the 4° C. lysis, centrifuge the lysate plates 3 mins×1500 rpm. […] Use the Bravo to transfer 13.6 μL of lysate from cell culture plate to assay plate. Then incubate assay plate for 2 hrs at room temperature. 8. At the end of incubation, read plate on the Envision after centrifuging plate 30 sec×1000 rpm.

[2] = test system: KRas-mediated phosphorylation of ERK in H727 cells; assay: Inhibition of KRas-mediated phosphorylation of ERK (Cisbio HTRF pERK), H727 cells; type: cell-based; conditions: HTRF pERK
Protocol: as §1

T1 sequence (P01116 1-169 isoform P01116-2 G12R): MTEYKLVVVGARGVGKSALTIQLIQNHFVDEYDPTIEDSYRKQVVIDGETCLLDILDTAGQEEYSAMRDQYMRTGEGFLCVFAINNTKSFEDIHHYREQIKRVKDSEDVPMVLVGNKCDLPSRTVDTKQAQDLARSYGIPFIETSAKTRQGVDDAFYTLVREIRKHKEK

SMILES	IC50 (KRas^G12R) [nM]	IC50 (KRas^G12V) [nM]	IC50 (KRas^G12D) [nM]	IC50 ([1]; Homo sapiens, ASPC1, AsPC-1 cells) [nM]	IC50 ([2]; Homo sapiens, NCI-H727, H727 cells) [nM]	IC50 ([1]; AsPC-1 cells) [nM]	IC50 ([2]; H727 cells) [nM]
CCc1cccc2cccc(-c3ncc4c(C5CCCOCC5)nc(OCC56CCCN5CCC6)nc4c3F)c12 (racemic) [Example 723, rac-(R)-7-(8-ethylnaphthalen-1-yl)-8-fluoro-4-(oxepan-4-yl)-2-((tetrahydro-1H-pyrrolizin-7a(5H)-yl)methoxy)pyrido[4,3-d]pyrimidine]	27500	42800	> 100000	–	–	–	–
CCc1c(F)ccc2cc(O)cc(-c3ncc4c(N5C[C@H]6C[C@@H](C5)[C@@H](O)[C@@H]6O)nc(OC[C@@]56CCCN5C[C@H](F)C6)nc4c3F)c12 (single isomer, unassigned) [Example 571]	59	62	300	> 10000	> 10000	–	–
CCc1c(F)ccc2cc(O)cc(-c3ncc4c(N5CCCC(C6CCNC6=O)C5)nc(OC[C@@]56CCCN5C[C@H](F)C6)nc4c3F)c12 (single isomer, unassigned) [Example 617]	4	4	9	–	–	1550	763
CCc1c(F)ccc2cc(O)cc(-c3ncc4c(N5CCCC(C6CCNC6=O)C5)nc(OC[C@@]56CCCN5C[C@H](F)C6)nc4c3F)c12 (single isomer, unassigned) [Example 618]	195	168	644	–	–	> 10000	> 10000
CCc1c(F)ccc2cc(O)cc(-c3ncc4c(N5CCCC(C6CCNC6=O)C5)nc(OC[C@@]56CCCN5C[C@H](F)C6)nc4c3F)c12 (single isomer, unassigned) [Example 619]	4	21	33	–	–	3620	1810
Fc1c(-c2cccc3cccc(F)c23)ncc2c(C3=CCCCC3)nc(OCC34CCCN3CCC4)nc12 [Example 524, 4-(cyclohex-1-en-1-yl)-8-fluoro-7-(8-fluoronaphthalen-1-yl)-2-((hexahydro-1H-pyrrolizin-7a-yl)methoxy)pyrido[4,3-d]pyrimidine]	> 100000	70900	> 100000	–	–	–	–
CCc1c(F)ccc2cc(O)cc(-c3ncc4c(CCc5ccnn5C)nc(OC[C@@]56CCCN5C[C@H](F)C6)nc4c3F)c12 [Example 545, 5-ethyl-6-fluoro-4-(8-fluoro-2-(((2R,7aS)-2-fluorotetrahydro-1H-pyrrolizin-7a(5H)-yl)methoxy)-4-(2-(1-methyl-1H-pyrazol-5-yl)ethyl)pyrido[4,3-d]pyrimidin-7-yl)naphthalen-2-ol]	656	431	4970	–	–	–	–
CCc1c(F)ccc2cc(O)cc(-c3ncc4c(NCc5c[nH]nc5NC(=O)C5COC5)nc(OC[C@@]56CCCN5C[C@H](F)C6)nc4c3F)c12 [Example 649, N-(4-(((7-(8-ethyl-7-fluoro-3-hydroxynaphthalen-1-yl)-8-fluoro-2-(((2R,7aS)-2-fluorohexahydro-1H-pyrrolizin-7a-yl)methoxy)pyrido[4,3-d]pyrimidin-4-yl)amino)methyl)-1H-pyrazol-3-yl) oxetane-3-carboxamide]	38	9	85	–	–	–	–
CCc1c(F)ccc2cc(O)cc(-c3ncc4c(NCc5cc(C(=O)N(C)C)n(CC#N)n5)nc(OC[C@@]56CCCN5C[C@H](F)C6)nc4c3F)c12 [Example 658, 1-(cyanomethyl)-3-(((7-(8-ethyl-7-fluoro-3-hydroxynaphthalen-1-yl)-8-fluoro-2-(((2R,7aS)-2-fluorotetrahydro-1H-pyrrolizin-7a(5H)-yl)methoxy)pyrido[4,3-d]pyrimidin-4-yl)amino)methyl)-N,N-dimethyl-1H-pyrazole-5-carboxamide]	65	7	224	–	–	–	–
CCc1cccc2cccc(-c3ncc4c(C5CCCCC5)nc(OCC56CCCN5CCC6)nc4c3F)c12 [Example 722, 4-cyclohexyl-7-(8-ethylnaphthalen-1-yl)-8-fluoro-2-((hexahydro-1H-pyrrolizin-7a-yl)methoxy)pyrido[4,3-d]pyrimidine]	30000	42900	> 100000	–	–	–	–
CCc1c(F)ccc2cc(OC)cc(-c3ncc4c(N5C[C@@H]6C[C@H](C5)[C@H](O)C6)nc(OC[C@@]56CCCN5C[C@H](F)C6)nc4c3F)c12 [Example 777, (1R,5R,6R)-3-(7-(8-ethyl-7-fluoro-3-methoxynaphthalen-1-yl)-8-fluoro-2-(((2R,7aS)-2-fluorohexahydro-1H-pyrrolizin-7a-yl)methoxy)pyrido[4,3-d]pyrimidin-4-yl)-3-azabicyclo[3.2.1]octan-6-ol]	1320	1050	4190	–	–	–	–
CCc1c(F)ccc2cc(O)cc(-c3ncc4c(NCc5cn(C(=O)N(C)C)nc5NC(=O)C5CCC5O)nc(OC[C@@]56CCCN5C[C@H](F)C6)nc4c3F)c12 (stereo partly drawn) [Example 819, 4-(((7-(8-ethyl-7-fluoro-3-hydroxynaphthalen-1-yl)-8-fluoro-2-(((2R,7aS)-2-fluorotetrahydro-1H-pyrrolizin-7a(5H)-yl)methoxy)pyrido[4,3-d]pyrimidin-4-yl)amino)methyl)-3-(2-hydroxycyclobutane-1-carboxamido)-N,N-dimethyl-1H-pyrazole-1-carboxamide]	86	24	1130	–	–	–	–
O[C@@H]1C[C@H]2C[C@@H]1CN(c1nc(OC[C@@]34CCCN3C[C@H](F)C4)nc3c(F)c(-c4cccc5cc(C(F)F)ccc45)ncc13)C2 [Example 841, (1R,5R,6R)-3-(7-(6-(difluoromethyl)naphthalen-1-yl)-8-fluoro-2-(((2R,7aS)-2-fluorotetrahydro-1H-pyrrolizin-7a(5H)-yl)methoxy)pyrido[4,3-d]pyrimidin-4-yl)-3-azabicyclo[3.2.1]octan-6-ol]	62900	34000	66900	–	–	–	–
CCc1c(F)ccc2cc(O)cc(-c3ncc4c(N5CCN(C)C[C@]6(C)CCC[C@@H]56)nc(OC[C@@]56CCCN5C[C@H](F)C6)nc4c3F)c12 [Example 866, 4-(4-((5aS,8aR)-4,5a-dimethyloctahydrocyclopenta[e][1,4]diazepin-1(2H)-yl)-8-fluoro-2-(((2R,7aS)-2-fluorotetrahydro-1H-pyrrolizin-7a(5H)-yl)methoxy)pyrido[4,3-d]pyrimidin-7-yl)-5-ethyl-6-fluoronaphthalen-2-ol]	7350	3530	102	–	–	–	–
CCCCCCCCCCN(C)C(=O)OC[C@@H]1CC[C@@]2(COc3nc(N4CCC[C@@](C)(O)C4)c4cnc(-c5cc(O)cc6ccc(F)c(CC)c56)c(F)c4n3)CCCN12 [Example 894, ((3S,7aR)-7a-(((7-(8-ethyl-7-fluoro-3-hydroxynaphthalen-1-yl)-8-fluoro-4-((R)-3-hydroxy-3-methylpiperidin-1-yl)pyrido[4,3-d]pyrimidin-2-yl)oxy)methyl)hexahydro-1H-pyrrolizin-3-yl)methyl decyl(methyl)carbamate]	177	119	121	–	–	–	–
O[C@@H]1CCCN(c2nc(OCC34CCCN3CCC4)nc3c(F)c(-c4cccc5cccc(Cl)c45)ncc23)C1 [Example 902, (R)-1-(7-(8-chloronaphthalen-1-yl)-8-fluoro-2-((tetrahydro-1H-pyrrolizin-7a(5H)-yl)methoxy)pyrido[4,3-d]pyrimidin-4-yl) piperidin-3-ol]	876	902	834	–	–	–	–
O[C@H]1CCCN(c2nc(OCC34CCCN3CCC4)nc3c(F)c(-c4cccc5cccc(Cl)c45)ncc23)C1 [Example 903, (S)-1-(7-(8-chloronaphthalen-1-yl)-8-fluoro-2-((tetrahydro-1H-pyrrolizin-7a(5H)-yl)methoxy)pyrido[4,3-d]pyrimidin-4-yl) piperidin-3-ol]	11200	15100	9830	–	–	–	–
O=S1(=O)NCC2(CCCN(c3nc(OCC45CCCN4CCC5)nc4c(F)c(-c5cccc6cccc(CO)c56)ncc34)C2)N1 (centres unmarked) [Example 906, 7-(8-fluoro-7-(8-(hydroxymethyl)naphthalen-1-yl)-2-((tetrahydro-1H-pyrrolizin-7a(5H)-yl)methoxy)pyrido[4,3-d]pyrimidin-4-yl)-2-thia-1,3,7-triazaspiro[4.5]decane 2,2-dioxide]	646	247	66	–	–	–	–
